From US20090226956A1, “RUNX-MEDIATED ACTION OF NUCLEAR RECEPTORS AND UTILITIES THEREOF” (University of Southern California, priority 2008, published 2009)

How the values were obtained:
Runx2 [1] = experiment: 6XOSE2-Luc Runx2 reporter luciferase assay, COS7 cells transfected with Runx2 and AR; format: cell-based, human
Description: As COS7 cells were transiently transfected in 96 well format with the Runx2 reporter 6XOSE2-Luc (firefly luciferase) along with expression vectors encoding human Runx2, AR, and GR as indicated. […] B. Parallel sets of COS7 cell cultures were transfected with either the AR reporter MMTV-Luc or the Runx2 reporter 6XOSE-Luc, along with 1 ng each of AR and Runx2 expression plasmids. […] Bar graphs represent luciferase assays, in which the reporters OSE2-Luc (left panel) and MMTV-Luc (right panel), were transfected with expression plasmids encoding wild type AR (WT) or a mutant AR lacking the AF1 domain (ΔAF1) as indicated.
We examined the effect of AR on the transcriptional potential of Runx2 using transient transfection reporter assays COS7 cells, which express neither transcription factor, were transfected with plasmids encoding Runx2 and AR, along with the 6XOSE2-Luc reporter, in which luciferase is controlled by six copies of the OSE2 Runx2 binding site (53).
Since AR is a potent transcription factor, we investigated if its transactivation function was required for repressing Runx2. […] MMTV-Luc and 6XOSE2-Luc were used as reporters for monitoring the transactivation and Runx2 repression functions of AR, respectively, with equal amounts of each of AR and Runx2 expression plasmids co-transfected in both assays.
Unless otherwise stated, these hormones were applied at a final concentration of 10 nM in 0.001% ethanol as the vehicle.
(§6) Transient transfection, luciferase, co-IP and ChIP—These assays were performed essentially as previously described (34, 51).

[2] = test system: endogenous Runx2 in PC3-AR cells; conditions: DHT 24 hrs; not in PC3-GFP cells
Text: B. PC3 cell that had been stably transduced with lentiviruses encoding AR or GFP were transiently transfected with the MMTV-Luc (left) or 6XOSE2-Luc (middle) reportersk, followed by luciferase assay, or, they were subjected to RT-qPCR analysis of the OC gene (right). […] Mean±SEM, n=4.
To study the influence of AR on Runx2 activity and on the Runx2 target gene OC in PCa cells, AR was first stably introduced into PC3 cells by retroviral infection. The transduced cells, designated PC3-AR, presumably resemble PCa cells that endogenously express both Runx2 and wild type AR. These cells were transiently transfected with the MMTV-Luc or the 6XOSE2-Luc reporter plasmid. PC3-GFP cells, transduced with a GFP-encoding retrovirus, were used as control.
Quantitative real time RT-PCR—Total RNA was isolated using Aurum Total RNA® kit (Bio-Rad, Hercules, Calif.) following the manufacturer's recommendations. One microgram of total RNA was reverse-transcribed using the Superscript III kit (Invitrogen) and the cDNA was subjected to real-time PCR amplification (RTqPCR) using iQ™ SYBR Green Supermix (Bio-Rad).

Runx2 in SaOS-2 cells = conditions: DHT 24 hrs
Description: Data are representative of at least three independent experiments.
as §6

[3] = test system: Runx2 occupancy of the endogenous OSE2 site; conditions: Day-9 MC3T3-E1, DHT four hours, ChIP
Description: Occupancy was quantified by qPCR of an OC promoter fragment containing the OSE2 site or a fragment of the insulin promoter as control.
To test whether the DNA-binding exclusion model operates in vivo, we investigated whether AR interferes with binding of Runx2 to its chromatin-embedded OSE2 element at the OC promoter in MC3T3-E1 cells.
A slight modification was introduced for immunoprecipitation using MC3T3-E1 and PC3-AR cells. These cells were plated in a 150 mm dish in phenol-red free media supplemented with 5% CSS. The MC3T3-E1 cell culture medium was further supplemented, commencing at confluence, with 50 μg/ml ascorbic acid and 150 mM β-glycerophosphate.

Runx1 = conditions: COS7, 6XOSE2-luc (FIG. 25)
Description: The ability of sex steroids and their receptors to repress Runx1 was determined by transient transfection assays of COS7 cells as described earlier for Runx2.
We tested the effects of ERαX, ERβ, AR and GR on Runx1 activity using the same assay employed for Runx2.

[4] = test system: endogenous Runx proteins in PC3 cells; conditions: 6XOSE2-luciferase, 10 nM DHT
Text: Interaction between AR and Runx proteins in PC3 cells that express endogenous Runx proteins. A. EMSA assessing Runx protein activity using an OSE2 ^32P-labeled probe. Whole cell extracts from PC3 cells were shifted and supershifted with Runx1 and Runx2 antibodies respectively and successfully competed with WT 10× and 100×OSE2 unlabeled probe. […] Confocal of endogenous Runx (fluorescein) proteins and AR (rhodamine) under transfected or untransfected AR conditions.

Runx2 [5] = experiment: 6XOSE2-luc Runx2 reporter luciferase assay, COS7 cells transfected with Runx2 and ERα; format: cell-based, human
Text: (§1) FIG. 1. ERα inhibits Runx2. (A,B) COS7 cells were transiently transfected with the Runx reporter 6XOSE2-luc (firefly) along with expression vectors encoding human Runx2 (A), Runx1 (B), ERα, and/or ERβ as indicated. […] In each experiment, the firefly luciferase results were corrected for the expression of a co-transfected CMV-renilla luciferase construct (internal control), except for Panel A, where the renilla luciferase values are shown in the inset graph. […] All data are presented as mean values±SEM, with n=4 dish replicates of a representative experiment, repeated at least 3 times.
(§2) FIG. 6. Various effects of SERM-bound ERα on Runx2. […] (B, C) COS7 cells were transfected with Runx2 and its 6XOSE2-luc reporter (B), or with ERE-luc (C) along with expression vectors coding for the indicated ER isoforms or fragments. […] All data are presented as mean values±SEM, with n=4 dish replicates of a representative experiment, repeated at least 3 times.
(§3) Cells were seeded at a density of 10,000 per well in 96-well plates and grown in 5% charcoal-stripped serum (CSS)-containing phenol red-free medium for 24 h. The indicated plasmids (50 ng reporter, 52 ng total) were transfected using ‘LTX and Plus reagent’ according to manufacture's specification (Invitrogen, Carlsbad, Calif.). Equimolar amounts of the empty vectors pcDNA 3.1 and pSG5 were used as controls, and the pCAT-basic promoter-less plasmid was used as ‘filler’ DNA. Under these conditions the total amounts of promoter equivalents (molar) and DNA mass (ng) were the same in all wells of a particular experiment. As an internal control, 0.01 ng of tk-Renilla-luc or CMV-renilla-luc (Promega, Madison, Wis.) was used for correction of transfection efficiency. Cells were subsequently treated with vehicle (EtOH, 0.01%) or the indicated ligands for 24 h. Luciferase activity was determined using the dual-assay luciferase kit (Promega, Madison, Wis.).
COS7 cells were transiently transfected with the indicated expression vectors along with a reporter for either Runx2 (6XOSE2-luciferase) or the classical transcriptional activation activity of ER (ERE-luciferase).

Runx2 [6] = experiment: 6XOSE2-luc Runx2 reporter luciferase assay, COS7 cells transfected with Runx2 and ERβ; format: cell-based, human; conditions: COS7, 6XOSE2-luc, 10 nM, 24 h
Text: as §1
as §3, with “As an internal control, 0.01 ng of tk-Renilla-luc or CMV-renilla-luc (Promega, Madison, Wis.) was used for correction of transfection efficiency. Cells were subsequently treated with vehicle (EtOH, 0.01%) or the indicated ligands for 24 h.” left out

ERα = biological target: T1, ERα (Homo sapiens, UniProt P03372); experiment: ERE-luc ER reporter luciferase assay in COS7 cells; format: cell-based; conditions: 100 nM (FIG. 6C)
T1 sequence (P03372 1-595): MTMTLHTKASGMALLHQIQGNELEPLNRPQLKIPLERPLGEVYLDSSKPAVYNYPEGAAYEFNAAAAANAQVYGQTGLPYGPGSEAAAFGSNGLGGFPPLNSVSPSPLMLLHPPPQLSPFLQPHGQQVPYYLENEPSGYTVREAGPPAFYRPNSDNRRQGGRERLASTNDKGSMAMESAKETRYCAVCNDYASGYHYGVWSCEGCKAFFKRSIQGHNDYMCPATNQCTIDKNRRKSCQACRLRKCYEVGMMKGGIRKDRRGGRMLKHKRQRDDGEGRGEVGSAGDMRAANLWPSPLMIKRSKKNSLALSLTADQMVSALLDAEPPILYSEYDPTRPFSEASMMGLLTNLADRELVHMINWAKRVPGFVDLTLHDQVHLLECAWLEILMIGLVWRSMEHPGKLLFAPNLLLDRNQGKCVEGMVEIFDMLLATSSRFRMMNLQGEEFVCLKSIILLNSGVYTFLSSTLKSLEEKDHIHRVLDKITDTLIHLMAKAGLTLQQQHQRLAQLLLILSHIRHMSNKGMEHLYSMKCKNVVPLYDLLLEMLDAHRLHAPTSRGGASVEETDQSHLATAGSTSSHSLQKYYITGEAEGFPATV

[7] = test system: Runx2 in MDA-MB-231 cells; experiment: 6XOSE2-luc Runx2 reporter assay in MDA-MB-231 breast cancer cells expressing ERα; format: cell-based, human; conditions: ERα expressed; E2 10 nM, OHT 100 nM, ICI 182780 100 nM
Text: as §2
(§4) COS7 cells were maintained in Dulbeco Modified Eagle Medium (DMEM) and 5% fetal bovine serum (FBS). The mouse osteoblastic cell line MC3T3-E1 was maintained in α-MEM and 10% FBS. Runx-reporter osteoblasts were generated by stable transfection of MC3T3-E1 cells with the 6XOSE2-luc reporter construct using the calcium phosphate coprecipitation method and hygromycin ([…]) as the selection drug. Resistance to hygromycin was conferred by cotransfection of the pCEP plasmid (1:15 molar ratio). To support development of the osteoblast phenotype, cells were treated with 50 μg/ml ascorbic acid and […] β-glycerophosphate commencing at confluence. The human breast cancer cell lines MDA-MB-231, T47D, and MCF7 were maintained in DMEM and 5% FBS.
(§5) Cells were seeded at a density of 10,000 per well in 96-well plates and grown in 5% charcoal-stripped serum (CSS)-containing phenol red-free medium for 24 h. […] Luciferase activity was determined using the dual-assay luciferase kit (Promega, Madison, Wis.).

Runx2 in T47D cells = experiment: 6XOSE2-luc Runx2 reporter assay in T47D breast cancer cells; format: cell-based, human; conditions: 100 nM
Text: as §2, §4, §5

Runx2 in MCF7 cells = experiment: 6XOSE2-luc Runx2 reporter assay in MCF7 breast cancer cells; format: cell-based, human; conditions: 100 nM
Text: as §2, §4, §5

ERα/Runx2 complexes = ERα/Runx2 complexes (Homo sapiens, UniProt P03372); conditions: COS7; E2 10 nM, OHT 100 nM, ICI 182780 100 nM; 24 h
Description: Cells were seeded at a density of 300,000 per well in six-well plates and grown in 5% CSS-containing phenol red-free medium for 24 h. Cells were transfected when indicated, and 24 h later they were lysed in a 50 mM Tris-HCl buffer (pH 7.4) containing 150 mM NaCl, 1 mM EDTA, 1% Triton X-100, and fresh Protease Inhibitors Cocktail (1%; Sigma, St. Louis, Mo.). […] The remaining lysate was immunoprecipitated with approximately 3 μg of the specified antibody and 30 μl Protein-G beads (Amersham Biosciences Freiburg, Germany) and washed three times for 5 min each with the same buffer, followed by centrifugation at 4,000 rpm for 1 min. […] Input and immunoprecipitates were analyzed by Western blot analysis.

Runx2 [8] = conditions: same cells as Raloxifene; cited from earlier work
AR DBD = AR DBD (Homo sapiens, UniProt P10275 P10275:540-647); experiment: EMSA; GST-AR-DBD alone forms no complex with OSE2; conditions: tags: GST fusion, E. coli BL21(DE3); label: 32P
Text: Where indicated, the binding reaction also contained purified GST, GST-AR-DBD, GST-AR-DBD^A573D (see FIG. 14G), or anti-Runx2 specific antibodies, either native (n) or denaturated by boiling (b). […] Arrow indicates Runx2/OSE2 complex.
The source for Runx2 was MC3T3-E1 cell extract and recombinant GST-AR-DBD was purified from E. coli.

[9] = COS7, 6XOSE2-Luc, 10 nM, 24 hrs

Sequence of AR DBD (P10275 540-647, one chain of several): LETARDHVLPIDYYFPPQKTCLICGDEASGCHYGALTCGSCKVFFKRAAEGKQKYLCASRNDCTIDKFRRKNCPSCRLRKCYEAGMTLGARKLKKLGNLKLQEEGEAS
Sequence of ERα/Runx2 complexes (Q13950 1-507 isoform Q13950-2 partner, one chain of several): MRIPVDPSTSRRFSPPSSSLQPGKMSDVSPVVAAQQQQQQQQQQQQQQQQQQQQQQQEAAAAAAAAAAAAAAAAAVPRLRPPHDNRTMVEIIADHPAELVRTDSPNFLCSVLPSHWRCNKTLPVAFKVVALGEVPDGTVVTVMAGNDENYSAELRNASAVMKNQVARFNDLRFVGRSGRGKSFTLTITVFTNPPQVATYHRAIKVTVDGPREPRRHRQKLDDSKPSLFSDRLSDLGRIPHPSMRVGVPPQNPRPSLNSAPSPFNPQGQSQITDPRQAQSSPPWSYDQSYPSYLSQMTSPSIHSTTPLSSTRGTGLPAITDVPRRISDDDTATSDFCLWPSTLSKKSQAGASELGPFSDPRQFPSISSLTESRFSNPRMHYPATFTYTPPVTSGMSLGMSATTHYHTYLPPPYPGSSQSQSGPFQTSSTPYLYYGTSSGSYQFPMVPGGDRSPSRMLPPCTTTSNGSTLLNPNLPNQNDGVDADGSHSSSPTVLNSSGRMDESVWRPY
Description for MC3T3-E1 cells: Staining with 4′,6-diamidino-2-phenylindole (DAPI) demarcates the cell nucleus.
A sub-line that had been stably transfected with the 6XOSE2-Luc reporter (51) was employed to simultaneously test the influence of AR on pure Runx2 activity (luciferase) and on OC gene expression.
Confocal immunofluorescence microscopy—Cells were grown on 18 mm^2 cover-slips in 6-well plates for 24 hrs in growth medium with CSS. […] Cells were mounted using Vectashield Hard Set mounting medium with DAPI (Burlingame, Calif.) and viewed using an LSM 510 Zeiss confocal microscope at 60× magnification. Images were processed using the software program Image J.

For `C[C@]12CCC(=O)C[C@@H]1CC[C@@H]1[C@@H]2CC[C@]2(C)[C@@H](O)CC[C@@H]12` [DHT, dihydrotestosterone], the “Effect on Runx2 activity in the absence of AR” value (Runx2 [1]; [9]) was “did not affect”, the “Effect on Runx2 activity in the presence of AR” value (Runx2 [1]; [9]) was “repressed Runx2 activity to basal levels” and the “Effect on Runx2 activity in the presence of GR” value (Runx2 [1]; COS7, 6XOSE2-Luc, DHT 10 nM) was “did not alter”. The “6XOSE2-Luc reporter activity in PC3-AR cells” value [2] was “strong repression”, the “OC expression (RT-qPCR) in PC3-AR cells” value [2] was “strongly inhibited” and the “6XOSE2-Luc luciferase activity in SaOS-2 cells” value (Runx2 in SaOS-2 cells) was “inhibited luciferase activity”. The “Expression of both 6XOSE2-Luc and OC on day 9” value (MC3T3-E1 cells; MC3T3-E1, DHT chronically since confluence or 24 hrs prior to harvest) was “strongly inhibited”, the “AR protein levels in early and late MC3T3-E1 cultures” value (MC3T3-E1 cells; immunofluorescence, day 1 and day 9, DHT 24 hrs) was “strongly induced” and the “Decrease of Runx2 occupancy of the endogenous OSE2 site” value [3] was 2.4 fold. For the same molecule, the “Effect of AR+DHT on Runx1 activity” value (Runx1) was “robustly inhibited” and the “Endogenous Runx-mediated activity in PC3 cells with transfected AR” value [4] was “also inhibited”.

In the case of `C[C@]12CC[C@@H]3c4ccc(O)cc4CC[C@H]3[C@@H]1CC[C@@H]2O` [E2, estradiol], the “Inhibition of Runx2 activity” value (Runx2 [5]; COS7, 6XOSE2-luc, in the presence of ERα, E2 10 nM, 24 h (FIG. 1A)) is reported as 76% and the “Effect on Runx2 activity in the presence of ERβ” value (Runx2 [6]) is reported as “did not inhibit”.

For `C[C@]12CC[C@@H]3c4ccc(O)cc4C[C@@H](CCCCCCCCC[S+]([O-])CCCC(F)(F)C(F)(F)F)[C@H]3[C@@H]1CC[C@@H]2O` (stereo partly shown) [ICI 182780], the “Stimulation of Runx2 activity” value (Runx2 [5]; COS7, 6XOSE2-luc, ERα, ICI 182780 100 nM, 24 h (FIG. 6B)) was 3.1 fold, the “Partial agonist effect on an ERE-containing template” value (ERα) was “weak” and the “Effect on 6XOSE2 Runx2 reporter in MDA-MB-231 cells” value [7] was “slight if any inhibitory effect”. For the same molecule, the “Effect on Runx2 in T47D cells” value (Runx2 in T47D cells) was “slightly stimulated”, the “Effect on Runx2 in MCF7 cells” value (Runx2 in MCF7 cells) was “slightly stimulated” and the “ERα/Runx2 interaction in co-IP (formation of ERα/Runx2 complexes)” value (ERα/Runx2 complexes) was “strongly induced”.

For `CC(=O)O[C@]1(C(C)=O)CC[C@H]2[C@@H]3C[C@H](C)C4=CC(=O)CC[C@]4(C)[C@H]3CC[C@@]21C` [MPA], the “Effect of MPA-stimulated AR on Runx activities” value (Runx2 [1]; COS7, 6XOSE2-luciferase, Runx2 and Runx1 (FIG. 21)) was “inhibited Runx activities”.

With `CC/C(=C(\c1ccc(O)cc1)c1ccc(OCCN(C)C)cc1)c1ccccc1` [OHT, hydroxytamoxifen] the “Effect on Runx2 when bound to the ERαDBD-LBD” value (Runx2 [5]; COS7, 6XOSE2-luc, ERαDBD-LBD fragment, 100 nM) was “stimulatory effect”, the “Effect on Runx2 activity” value (Runx2 [5]; COS7, 6XOSE2-luc, full-length ERα, 100 nM, 24 h) was “slightly inhibited” and the “Effect on 6XOSE2 Runx2 reporter in MDA-MB-231 cells” value [7] was “as strongly as E2”. For the same molecule, the “Effect on Runx2 in T47D cells” value (Runx2 in T47D cells) was “uniformly inhibitory” and the “Effect on Runx2 in MCF7 cells” value (Runx2 in MCF7 cells) was “uniformly inhibitory”.

For `O=C(c1ccc(OCCN2CCCCC2)cc1)c1c(-c2ccc(O)cc2)sc2cc(O)ccc12` [Raloxifene], the “Effect on Runx2 activity in COS7 cells (Example V)” value (Runx2 [5]; 6XOSE2-luciferase, 100 nM Raloxifene, 24 hrs) was “small effect is stimulatory”.

For `CC/C(=C(\c1ccccc1)c1ccc(OCCN(C)C)cc1)c1ccccc1` [Tamoxifene], the “Effect on Runx2 activity in COS7 cells (Khalid et al., 2008, FIG. 6B)” value (Runx2 [8]) is given as “small inhibitory effect”.

B1: OSE2 probe (dsDNA)
DNA 1: AGCTGCAATCACCAACCACAGCA
DNA 2: TGCTGTGGTTGGTGATTGCAGCT
B1: no binding (AR DBD).
